The values that follow come from PMC3799806 (Bioorganic & medicinal chemistry, 2012).

The subject of this series is HG23 cells. In words: cell cytotoxicity assay kit. Type of series: cell-based. As to conditions: TD50.

In the case of `O=C(CN(Cc1ccccc1)S(=O)(=O)NCc1cccc(Oc2ccccc2)c1)NCCN1CCOCC1` [Compound 11b, 2-(Benzyl(N-(3-phenoxybenzyl)sulfamoyl)amino)-N-(2-morpholinoethyl)acetamide], the “higher toxicity versus compound 11a” value is ~ 8 fold.
